Test results published in ChEMBL document CHEMBL4699661, “Synthesis and Biological Characterization of Cyclic Disulfide-Containing Peptide Analogs of the Multifunctional Opioid/Neuropeptide FF Receptor Agonists That Produce Long-Lasting and Nontolerant Antinociception” (J Med Chem, 2020).
Active and inactive are the calls of the source. No cut-off for these calls is given here.

Experiments:
Mus musculus [1] = experiment: Analgesic activity in NPFF2 -/- C57BL/6 mouse at 0.89 umol/kg, sc by radiant heat tail flick test relative to wild type mouse; assay type: functional, organism-based; details: dose 0.89 µmol/kg
[2] = biological target: T1, Neuropeptide FF receptor 1 (Homo sapiens, UniProt Q9GZQ6); experiment: Agonist activity at NPFFR1 (unknown origin) expressed in HEK293-A cells assessed as inhibition of forskolin-stimulated cAMP accumulation incubated for 30 mins by competition PKA binding assay; assay type: functional, cell-based
Mus musculus [3] = experiment: Analgesic activity in Kunming mouse at 2.68 umol/kg, sc pre-treated with 1 mg/kg, sc peripherally restricted opioid receptor antagonist naloxone methiodide by radiant heat tail flick test; assay type: functional, organism-based; details: dose 2.68 µmol/kg
Mus musculus [4] = experiment: Analgesic activity in sc dosed Kunming mouse by radiant heat tail flick test; assay type: functional
[5] = biological target: T2, Delta-type opioid receptor (Homo sapiens, UniProt P41143); experiment: Agonist activity at delta opioid receptor (unknown origin) expressed in HEK293-A cells assessed as inhibition of forskolin-stimulated cAMP accumulation incubated for 30 mins by competition PKA binding assay relative to control; assay type: functional, cell-based; details: filed as agonist
Mus musculus [6] = experiment: Analgesic activity in Kunming mouse at 2.68 umol/kg, sc pre-treated with 1 mg/kg, sc opioid receptor antagonist naloxone by radiant heat tail flick test; assay type: functional, organism-based; details: dose 2.68 µmol/kg
[7] = Half life in 100% mouse plasma at 0.01 mM by RP-HPLC analysis; assay type: ADME, cell-free
[8] = biological target: T2, Delta-type opioid receptor; experiment: Agonist activity at delta opioid receptor (unknown origin) expressed in HEK293-A cells assessed as inhibition of forskolin-stimulated cAMP accumulation incubated for 30 mins by competition PKA binding assay; assay type: functional, cell-based
Mu-type opioid receptor = Mu-type opioid receptor (Homo sapiens, UniProt P35372); experiment: Agonist activity at mu opioid receptor (unknown origin) expressed in HEK293-A cells assessed as inhibition of forskolin-stimulated cAMP accumulation incubated for 30 mins by competition PKA binding assay; assay type: functional, cell-based
[9] = biological target: Kappa-type opioid receptor (Homo sapiens, UniProt P41145); experiment: Agonist activity at kappa opioid receptor (unknown origin) expressed in HEK293-A cells assessed as inhibition of forskolin-stimulated cAMP accumulation incubated for 30 mins by competition PKA binding assay; assay type: functional, cell-based
Mus musculus [10] = experiment: Analgesic activity in Kunming mouse at 8.94 umol/kg, sc pre-treated with 1 mg/kg, sc opioid receptor antagonist naloxone by radiant heat tail flick test; assay type: functional, organism-based; details: dose 8.94 µmol/kg
[11] = biological target: T3, Neuropeptide FF receptor 2 (Homo sapiens, UniProt Q9Y5X5); experiment: Agonist activity at NPFFR2 (unknown origin) expressed in HEK293-A cells assessed as inhibition of forskolin-stimulated cAMP accumulation incubated for 30 mins by competition PKA binding assay; assay type: functional, cell-based
Mus musculus [12] = experiment: Analgesic activity in Kunming mouse at 8.94 umol/kg, sc pre-treated with 5 nmol, icv peripherally restricted opioid receptor antagonist naloxone methiodide by radiant heat tail flick test; assay type: functional, organism-based; details: dose 8.94 µmol/kg
Mus musculus [13] = experiment: Analgesic activity in sc dosed Kunming mouse assessed as time duration during which antinociception lasted by radiant heat tail flick test; assay type: functional
[14] = biological target: T1, Neuropeptide FF receptor 1; experiment: Agonist activity at NPFFR1 (unknown origin) expressed in HEK293-A cells assessed as inhibition of forskolin-stimulated cAMP accumulation incubated for 30 mins by competition PKA binding assay relative to control; assay type: functional, cell-based; details: filed as agonist
Mus musculus [15] = experiment: Analgesic activity in icv dosed Kunming mouse assessed as time duration during which supraspinal antinociception lasted by radiant heat tail flick test; assay type: functional
Mus musculus [16] = experiment: Analgesic activity in Kunming mouse at 8.94 umol/kg, sc pre-treated with 1 mg/kg, sc peripherally restricted opioid receptor antagonist naloxone methiodide by radiant heat tail flick test; assay type: functional, organism-based; details: dose 8.94 µmol/kg
Mus musculus [17] = experiment: Analgesic activity in sc dosed Kunming mouse dosed once daily for 8 consecutive days by radiant heat tail flick test; assay type: functional, organism-based; details: time 8.0 day
[18] = biological target: T3, Neuropeptide FF receptor 2; experiment: Agonist activity at NPFFR2 (unknown origin) expressed in HEK293-A cells assessed as inhibition of forskolin-stimulated cAMP accumulation incubated for 30 mins by competition PKA binding assay relative to control; assay type: functional, cell-based; details: filed as agonist
Mus musculus [19] = experiment: Analgesic activity in NPFF2 -/- C57BL/6 mouse at 0.09 umol/kg, sc by radiant heat tail flick test relative to wild type mouse; assay type: functional, organism-based; details: dose 0.09 µmol/kg
Mus musculus [20] = experiment: Analgesic activity in Kunming mouse assessed as increase in antinociceptive effect at 0.03 pmol, icv pre-treated with 10 nmol, icv NPFF receptor antagonist RF9 by radiant heat tail flick test; assay type: functional, organism-based
Mus musculus [21] = experiment: Analgesic activity in icv dosed Kunming mouse by radiant heat tail flick test; assay type: functional
Mus musculus [22] = experiment: Analgesic activity in Kunming mouse at 2.68 umol/kg, sc pre-treated with 5 nmol, icv peripherally restricted opioid receptor antagonist naloxone methiodide by radiant heat tail flick test; assay type: functional, organism-based; details: dose 2.68 µmol/kg
Mus musculus [23] = experiment: Analgesic activity in icv dosed Kunming mouse dosed once daily for 8 consecutive days by radiant heat tail flick test; assay type: functional, organism-based; details: time 8.0 day
[24] = Half life in 15% mouse brain at 0.01 mM by RP-HPLC analysis; assay type: ADME, tissue-based
Mus musculus [25] = experiment: Analgesic activity in sc dosed Kunming mouse pre-treated with 1 mg/kg, sc peripherally restricted opioid receptor antagonist naloxone methiodide by radiant heat tail flick test; assay type: functional, organism-based
Mus musculus [26] = experiment: Analgesic activity in sc dosed Kunming mouse pre-treated with 5 nmol, icv peripherally restricted opioid receptor antagonist naloxone methiodide by radiant heat tail flick test; assay type: functional, organism-based
Mus musculus [27] = experiment: Analgesic activity in sc dosed Kunming mouse pre-treated with 1 mg/kg, sc opioid receptor antagonist naloxone by radiant heat tail flick test; assay type: functional, organism-based
[28] = Ratio of drug level in brain to plasma in mouse; assay type: ADME; details: read-out: BPR

For `N=C(N)NCCC[C@H](NC(=O)[C@H](CCC(N)=O)NC(=O)[C@@H]1CCCN1C(=O)[C@H](CS)NC(=O)[C@H](Cc1ccccc1)NC(=O)CNC(=O)[C@@H](CS)NC(=O)[C@@H](N)Cc1ccc(O)cc1)C(=O)N[C@@H](Cc1ccccc1)C(N)=O`, the Activity (Mus musculus [1]) was “Active”, the EC50 [2] was 17.5 nM and the Activity (Mus musculus [3]) was “inactive”. For the same compound, the ED50 (Mus musculus [4]) was 0.13 µmol/kg, the Emax [5] was 46.1% and the Activity (Mus musculus [6]) was “inactive”. It also gave a half-life at 10 µM [7] of 27.9 min, an EC50 [8] of 514 nM and an EC50 (Mu-type opioid receptor) of 221 nM. The EC50 ([9]; read-out: EC50) was 581 nM, the Activity (Mus musculus [10]) was “inactive” and the EC50 [11] was 532 nM. The Activity (Mus musculus [12]) was “Active”, the Time (Mus musculus [13]) was 3 h and the Emax [14] was 78.5%. The Time (Mus musculus [15]) was 3 h, the Activity (Mus musculus [16]) was “inactive” and the Activity (Mus musculus [17]) was “Active”. The Emax [18] was 46.6%, the Activity (Mus musculus [19]) was “Active” and the Activity (Mus musculus [20]) was “Active”. The ED50 (Mus musculus [21]) was 0.6 pmol and the Activity (Mus musculus [22]) was “Active”.

`N=C(N)NCCC[C@H](NC(=O)[C@H](CCC(N)=O)NC(=O)[C@@H]1CCCN1C(=O)[C@@H](CS)NC(=O)[C@H](Cc1ccccc1)NC(=O)CNC(=O)[C@@H](CS)NC(=O)[C@@H](N)Cc1ccc(O)cc1)C(=O)N[C@@H](Cc1ccccc1)C(N)=O` showed an EC50 [2] of 788 nM, an ED50 (Mus musculus [4]) of 0.06 µmol/kg and an Emax [5] of 58.3%. For the same compound, the half-life at 10 µM [7] was 30.9 min, the EC50 [8] was 219 nM and the EC50 (Mu-type opioid receptor) was 171 nM. For the same compound, the EC50 ([9]; read-out: EC50) was 2300 nM, the EC50 [11] was 719 nM and the Time (Mus musculus [13]) was 3 h. For the same compound, the Emax [14] was 85.7%, the Time (Mus musculus [15]) was 3 h and the Activity (Mus musculus [17]) was “Active”. For the same compound, the Emax [18] was 58.4%, the Activity (Mus musculus [20]) was “Active” and the ED50 (Mus musculus [21]) was 1.13 pmol.

For `N=C(N)NCCC[C@H](NC(=O)[C@H](CCC(N)=O)NC(=O)[C@@H]1CCCN1C(=O)[C@@H]1CSSC[C@H](NC(=O)[C@@H](N)Cc2ccc(O)cc2)C(=O)NCC(=O)N[C@@H](Cc2ccccc2)C(=O)N1)C(=O)N[C@@H](Cc1ccccc1)C(N)=O`, the EC50 [2] was 32.5 nM, the ED50 (Mus musculus [4]) was 0.18 µmol/kg and the Emax [5] was 63.6%. It also gave a half-life at 10 µM [7] of 28.9 min, an EC50 [8] of 162 nM and an EC50 (Mu-type opioid receptor) of 788 nM. The EC50 ([9]; read-out: EC50) was 307 nM, the EC50 [11] was 120 nM and the Activity (Mus musculus [23]) was “Active”. The Time (Mus musculus [13]) was 1.5 h, the Emax [14] was 80.2% and the Activity (Mus musculus [17]) was “Active”. The half-life at 10 µM [24] was 58 min, the Emax [18] was 79.6% and the Activity (Mus musculus [20]) was “Active”. The ED50 (Mus musculus [21]) was 182 pmol.

In the case of `N=C(N)NCCC[C@H](NC(=O)[C@H](CCC(N)=O)NC(=O)[C@@H]1CCCN1C(=O)[C@@H](CS)NC(=O)[C@H](Cc1ccccc1)NC(=O)CNC(=O)[C@H](CS)NC(=O)[C@@H](N)Cc1ccc(O)cc1)C(=O)N[C@@H](Cc1ccccc1)C(N)=O`, the EC50 [2] is reported as 216 nM, the Activity (Mus musculus [25]) is reported as “inactive” and the Activity (Mus musculus [26]) is reported as “Active”. For the same compound, the ED50 (Mus musculus [4]) was 0.1 µmol/kg, the Emax [5] was 50.4% and the half-life at 10 µM [7] was 31.4 min. The EC50 [8] was 199 nM, the Activity (Mus musculus [27]) was “inactive” and the EC50 (Mu-type opioid receptor) was 178 nM. For the same compound, the EC50 ([9]; read-out: EC50) was 75.1 nM, the EC50 ([9]; read-out: pEC50 (converted)) was 74.1 nM and the EC50 [11] was 697 nM. The Time (Mus musculus [13]) was 3 h, the Emax [14] was 81.8% and the Time (Mus musculus [15]) was 3 h. For the same compound, the Activity (Mus musculus [17]) was “Active”, the Emax [18] was 55.1% and the Activity (Mus musculus [20]) was “Active”. The ED50 (Mus musculus [21]) was 6.42 pmol.

`CN1CC[C@]23c4c5ccc(O)c4O[C@H]2[C@@H](O)C=C[C@H]3[C@H]1C5` [MORPHINE] gave a Kp [28] of 0.74.
